Earlier results as cited in patent US11058116B1, “Composition for stimulating plant growth and resistance to stress factors” (AGRATEK PTE. LTD., priority 2018, dated 2021).

Columns and labels:
seeds = conditions: pre-treatment of seeds with a solution
mold = conditions: pre-treatment of seeds with a solution

SMILES: O=C([O-])CCC(=O)[O-].[Mg+2] [succinate of magnesium, magnesium succinate (Mg2C4H4O4)]
- germination (increased to) (seeds): 99%
- reduces the seeds infection with mold (mold): 86%
